From patent publication EP2687213B1, “Solid forms comprising (+)-2-[1-(3-ethoxy-4-methoxyphenyl)-2-methylsulfonylethyl]-4-acetylaminoisoindoline-1,3-dione, compositions thereof, and uses thereof” (CELGENE CORPORATION, priority 2008, dated 2009)

Test system: conscious ferret
Assay: Emesis and behavioral changes in conscious ferrets after oral dosing
Assay type: in vivo
Conditions: for Ataxia / Backward walking / Flattened posture / Lip licking / Mouth clawing / Panting / Retches / Salivation / Vomits: oral, (animals that responded/group)
Experimental: PDE4 inhibitors were administered orally (p.o.), at doses initially of […], but subsequently up to 30 mg/kg in order to establish whether the TI was 10 or higher, and/or at lower doses to establish the minimum dose to cause 50% inhibition of neutrophilia. Ferrets were fasted overnight but allowed free access to water. The animals were orally dosed with vehicle or PDE4 inhibitor using a 15 cm dosing needle that was passed down the back of the throat into the oesophagus. After dosing, the animals were returned to holding cages fitted with Perspex doors to allow observation, and given free access to water. After dosing, the animals were constantly observed and any emesis or behavioral changes were recorded. The animals were allowed access to food 60 to 90 minutes after p.o. dosing.
Thirty minutes after p.o. dosing with compound or vehicle control, the ferrets were placed into sealed Perspex containers and exposed to an aerosol of LPS (100 µg/ml) for 10 minutes. Aerosols of LPS were generated by a nebulizer (DeVilbiss, USA) and this was directed into the Perspex exposure chamber. Following a 10 minute exposure period, the animals were returned to the holding cages and allowed free access to water, and at a later stage, food. Observation continued for a period of at least 2.5 hours post p.o. dosing and emetic episodes and behavioral changes were recorded.
• 1. % Inhibition of LPS-induced pulmonary neutrophilia. • 2. Emetic episodes - the number of vomits and retches were counted. • 3. Behavioral changes - the following behavioral effects were noted: salivation, panting, mouth clawing, flattened posture, ataxia, arched back and backward walking. Any behavioral changes were semi-quantified by applying a severity rating (mild, moderate or severe). • 4. The TI was calculated as the highest dose found to not cause emetic episodes divided by the lowest dose found to inhibit pulmonary neutrophilia by 50% or more.
Numbers in parentheses refer to the number of animals that responded. The numbers of animals in each group range from 4 to 22.

## CCOc1cc(C(CS(C)(=O)=O)N2C(=O)c3cccc(NC(C)=O)c3C2=O)ccc1OC (single isomer, unassigned; (+)) [Compound A, (+)-2-[1-(3-ethoxy-4-methoxyphenyl)-2-methylsulfonylethyl]-4-acetylaminoisoindoline-1,3-dione]
10 mg/kg p.o., in 2/6 ferrets
  emetic episodes: some retching but no frank emesis
30 mg/kg p.o. (highest dose tested), in 3/4 animals
  emesis: moderate to marked emesis
0.1-3 mg/kg, p.o.
  behavioral changes (flattened posture, lip licking and backward walking), severity: mild
  emetic episodes (retching and vomiting): no emetic episodes
0.1 mg/kg
  Ataxia: None
  Backward walking: Mild (3/5)
  Flattened posture: Mild (2/5)
  Lip licking: Mild (4/5)
  Mouth clawing: None
  Panting: None
  Retches: None
  Salivation: None
  Vomits: None
0.3 mg/kg
  Ataxia: None
  Backward walking: Mild (4/6)
  Flattened posture: Mild (2/6)
  Lip licking: Mild (3/6)
  Mouth clawing: None
  Panting: None
  Retches: None
  Salivation: None
  Vomits: None
1.0 mg/kg
  Ataxia: None
  Backward walking: Mild (4/6)
  Flattened posture: Mild (2/6)
  Lip licking: Mild (6/6)
  Mouth clawing: None
  Panting: None
  Retches: None
  Salivation: None
  Vomits: None
3.0 mg/kg
  Ataxia: None
  Backward walking: Moderate (5/8)
  Flattened posture: Marked (7/8)
  Lip licking: Mild (2/8)
  Mouth clawing: Mild (1/8)
  Panting: None
  Retches: None
  Salivation: None
  Vomits: None
10 mg/kg
  Ataxia: None
  Backward walking: Marked (6/6)
  Flattened posture: Marked (6/6)
  Lip licking: Moderate (5/6)
  Mouth clawing: Mild (1/6)
  Panting: None
  Retches: Mild (2/6)
  Salivation: Mild (1/6)
  Vomits: None
30 mg/kg
  Ataxia: Mild (3/4)
  Backward walking: Mild (2/4)
  Flattened posture: Marked (4/4)
  Lip licking: Moderate (4/4)
  Mouth clawing: Marked (4/4)
  Panting: Mild (1/4)
  Retches: Marked (3/4)
  Salivation: Moderate (3/4)
  Vomits: Moderate (3/4)
